Experiments:
Set-up in all cases: scale not given: the % may be the effect or the level left
[1] = target: Mitogen-activated protein kinase 9 (Homo sapiens) (UniProt P45984); assay: Inhibition of human JNK2-alpha2 assessed as enzyme activity at 1 uM using ATF2 as substrate preincubated for 20 mins followed by [gamma-33P]-ATP addition and measured after 120 mins by radiometric Hot-SpotSM Kinase assay relative to control
[2] = target: T1, Dual specificity mitogen-activated protein kinase kinase 6 (Homo sapiens) (UniProt P52564); assay: Inhibition of human MKK6 assessed as enzyme activity at 1 uM using p38a (K53A) as substrate preincubated for 20 mins followed by [gamma-33P]-ATP addition and measured after 120 mins by radiometric Hot-SpotSM Kinase assay relative to control
T1 sequence (whole entry): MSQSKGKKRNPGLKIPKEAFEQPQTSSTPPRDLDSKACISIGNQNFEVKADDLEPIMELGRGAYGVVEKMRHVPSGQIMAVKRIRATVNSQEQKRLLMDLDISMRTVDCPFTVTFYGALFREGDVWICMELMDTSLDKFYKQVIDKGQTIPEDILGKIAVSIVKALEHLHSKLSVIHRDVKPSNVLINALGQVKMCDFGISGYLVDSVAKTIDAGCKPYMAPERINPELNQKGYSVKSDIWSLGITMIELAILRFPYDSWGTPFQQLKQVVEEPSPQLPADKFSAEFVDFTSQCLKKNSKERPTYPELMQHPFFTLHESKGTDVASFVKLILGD

[3] = target: T2, Serine/threonine-protein kinase MAK (Homo sapiens) (UniProt P20794); assay: Inhibition of human MAK assessed as enzyme activity at 1 uM using myelin basic protein as substrate preincubated for 20 mins followed by [gamma-33P]-ATP addition and measured after 120 mins by radiometric Hot-SpotSM Kinase assay relative to control
T2 sequence (whole entry): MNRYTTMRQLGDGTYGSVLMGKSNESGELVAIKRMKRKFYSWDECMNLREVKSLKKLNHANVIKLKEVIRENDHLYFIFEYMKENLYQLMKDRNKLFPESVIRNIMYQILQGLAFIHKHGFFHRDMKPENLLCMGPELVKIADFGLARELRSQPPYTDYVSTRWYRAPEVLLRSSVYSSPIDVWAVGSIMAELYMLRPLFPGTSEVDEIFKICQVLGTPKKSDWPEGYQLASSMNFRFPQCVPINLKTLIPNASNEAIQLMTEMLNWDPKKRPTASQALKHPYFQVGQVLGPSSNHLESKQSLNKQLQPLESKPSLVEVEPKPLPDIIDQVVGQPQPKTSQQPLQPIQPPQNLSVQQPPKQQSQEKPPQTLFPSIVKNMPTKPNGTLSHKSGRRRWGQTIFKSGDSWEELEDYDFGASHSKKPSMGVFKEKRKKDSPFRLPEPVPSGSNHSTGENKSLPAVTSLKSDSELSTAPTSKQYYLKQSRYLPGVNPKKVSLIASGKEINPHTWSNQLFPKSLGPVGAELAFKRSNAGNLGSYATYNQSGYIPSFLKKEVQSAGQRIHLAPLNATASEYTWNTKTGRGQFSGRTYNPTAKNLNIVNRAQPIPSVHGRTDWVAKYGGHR

[4] = target: Protein kinase C alpha type (Homo sapiens) (UniProt P17252); assay: Inhibition of human PKCa assessed as enzyme activity at 1 uM using ERMRPRKRQGSVRRRV as substrate preincubated for 20 mins followed by [gamma-33P]-ATP addition and measured after 120 mins by radiometric Hot-SpotSM Kinase assay relative to control
[5] = target: T3, Serine/threonine-protein kinase ULK2 (Homo sapiens) (UniProt Q8IYT8); assay: Inhibition of human ULK2 assessed as enzyme activity at 1 uM using myelin basic protein as substrate preincubated for 20 mins followed by [gamma-33P]-ATP addition and measured after 120 mins by radiometric Hot-SpotSM Kinase assay relative to control
T3 sequence (whole entry): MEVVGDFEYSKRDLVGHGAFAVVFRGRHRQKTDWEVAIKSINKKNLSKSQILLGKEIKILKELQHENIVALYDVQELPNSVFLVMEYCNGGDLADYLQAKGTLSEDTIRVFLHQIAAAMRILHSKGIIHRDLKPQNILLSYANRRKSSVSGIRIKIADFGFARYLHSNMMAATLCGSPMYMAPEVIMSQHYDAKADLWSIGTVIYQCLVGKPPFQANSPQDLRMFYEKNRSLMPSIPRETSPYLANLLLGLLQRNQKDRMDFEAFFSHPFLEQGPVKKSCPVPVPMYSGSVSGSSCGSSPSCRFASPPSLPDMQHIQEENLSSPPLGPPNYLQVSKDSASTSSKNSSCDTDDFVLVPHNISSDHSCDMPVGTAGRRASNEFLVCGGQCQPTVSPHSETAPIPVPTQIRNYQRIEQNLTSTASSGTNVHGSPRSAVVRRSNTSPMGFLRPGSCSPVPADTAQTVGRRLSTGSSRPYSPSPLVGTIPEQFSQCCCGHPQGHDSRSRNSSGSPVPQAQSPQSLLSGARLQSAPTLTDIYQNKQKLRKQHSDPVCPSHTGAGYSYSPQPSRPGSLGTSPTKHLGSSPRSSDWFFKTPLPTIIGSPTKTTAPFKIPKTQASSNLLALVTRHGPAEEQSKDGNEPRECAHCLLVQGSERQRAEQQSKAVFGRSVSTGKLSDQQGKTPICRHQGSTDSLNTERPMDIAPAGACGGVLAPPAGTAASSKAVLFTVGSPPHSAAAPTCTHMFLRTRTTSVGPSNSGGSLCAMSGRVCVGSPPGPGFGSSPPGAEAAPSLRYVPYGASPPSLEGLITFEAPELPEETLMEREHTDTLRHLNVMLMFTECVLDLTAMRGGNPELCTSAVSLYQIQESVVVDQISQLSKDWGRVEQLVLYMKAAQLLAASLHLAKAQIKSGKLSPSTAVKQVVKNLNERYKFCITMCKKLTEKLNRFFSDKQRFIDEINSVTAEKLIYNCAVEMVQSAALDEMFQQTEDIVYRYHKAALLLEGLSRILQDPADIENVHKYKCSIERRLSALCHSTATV

Mitogen-activated protein kinase 9 (Homo sapiens), sequence (P45984 whole entry, looked up): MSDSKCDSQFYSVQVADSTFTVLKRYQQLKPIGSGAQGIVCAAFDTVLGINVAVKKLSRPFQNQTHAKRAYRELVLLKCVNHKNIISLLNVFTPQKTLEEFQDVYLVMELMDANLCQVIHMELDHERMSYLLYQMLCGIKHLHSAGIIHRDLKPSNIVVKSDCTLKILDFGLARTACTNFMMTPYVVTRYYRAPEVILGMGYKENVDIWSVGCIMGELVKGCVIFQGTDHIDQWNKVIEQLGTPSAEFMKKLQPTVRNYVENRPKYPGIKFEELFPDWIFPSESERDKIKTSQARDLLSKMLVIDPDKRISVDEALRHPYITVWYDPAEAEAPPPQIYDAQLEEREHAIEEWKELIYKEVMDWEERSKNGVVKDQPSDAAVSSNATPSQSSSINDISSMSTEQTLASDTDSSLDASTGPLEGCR

CC[C@H](Nc1ncnc2[nH]cnc12)c1nc2cccc(F)c2c(=O)n1-c1ccccc1
Activity [1]: 96.8%
Activity [2]: 87.2%
Activity [3]: 92.5%
Activity [4]: 103%
Activity [5]: 89.3%

C[C@H](Nc1ncnc2nc[nH]c12)c1cc2cccc(Cl)c2c(=O)n1-c1ccccc1
Activity [1]: 97.8%
Activity [2]: 86.2%
Activity [3]: 98.5%
Activity [4]: 116%
Activity [5]: 98.4%

CC(C)Oc1ccc(-c2nn([C@@H](C)c3oc4ccc(F)cc4c(=O)c3-c3cccc(F)c3)c3ncnc(N)c23)cc1F [UMBRALISIB]
Activity [1]: 97.3%
Activity [2]: 87.8%
Activity [3]: 96.5%
Activity [4]: 114%
Activity [5]: 101%

From ChEMBL document CHEMBL5715954, “Silencing c-Myc translation as a therapeutic strategy through targeting PI3Kδ and CK1ε in hematological malignancies” (Blood, 2017)
